Data: US20130022644A1, “NOVEL N-PHENYLACETAMIDE DERIVATIVES, WHICH INHIBIT THE ENZYME SOAT-1, AND PHARMACEUTICAL AND COSMETIC COMPOSITIONS CONTAINING THEM” (GALDERMA RESEACH & DEVELOPMENT, priority 2009, published 2013)

Experiments:
enzyme ACAT-1 = molecular target: T1, enzyme ACAT-1 (Homo sapiens, UniProt P35610); experiment: HepG2 NBD-cholesterol fluorescence test for inhibitory activity towards the enzyme ACAT-1 (SOAT-1); type: cell-based; conditions: HepG2 cells, NBD-cholesterol 1 μg/ml, incubation 6 hours at 37° C., fluorescence ex 490 nm / em 540 nm
T1 construct: endogenous in cells; host or cells: HepG2
T1 sequence (P35610 1-550): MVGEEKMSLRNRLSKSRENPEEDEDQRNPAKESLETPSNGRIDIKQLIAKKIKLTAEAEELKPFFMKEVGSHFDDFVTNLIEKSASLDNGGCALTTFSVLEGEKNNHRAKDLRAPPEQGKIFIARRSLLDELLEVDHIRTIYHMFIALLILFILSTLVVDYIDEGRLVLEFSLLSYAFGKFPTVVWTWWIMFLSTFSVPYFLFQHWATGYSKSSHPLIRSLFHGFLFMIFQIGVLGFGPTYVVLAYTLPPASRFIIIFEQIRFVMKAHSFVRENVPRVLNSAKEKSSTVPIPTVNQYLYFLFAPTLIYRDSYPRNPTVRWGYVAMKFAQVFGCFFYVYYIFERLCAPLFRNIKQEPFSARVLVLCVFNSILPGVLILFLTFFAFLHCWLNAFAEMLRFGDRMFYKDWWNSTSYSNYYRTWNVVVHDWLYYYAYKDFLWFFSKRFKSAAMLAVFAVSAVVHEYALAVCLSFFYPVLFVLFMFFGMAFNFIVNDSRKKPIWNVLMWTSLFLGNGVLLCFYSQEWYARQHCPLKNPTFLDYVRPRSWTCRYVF
Experimental: The compounds (1) according to the invention, and also the pharmaceutically acceptable salts, solvates and/or hydrates thereof, have inhibitory properties on the enzyme SOAT-1. This inhibitory activity on the enzyme SOAT-1 is measured according to a HepG2 primary enzymatic test, as described in Example 3.
The compounds of formula (I) according to the invention were subjected to a test for evaluating their inhibitory activity towards the enzyme ACAT-1, inspired by the following publication: “Identification of ACAT1- and ACAT2-specific inhibitors using a novel, cell based fluorescence assay: individual ACAT uniqueness”, J. Lipid. Res. (2004) vol. 45, pages 378-386.
The principle of this test is based on the use of NBD-cholesterol, a cholesterol analogue whose fluorescence depends on its environment. When this molecule is in a polar environment, it is weakly fluorescent, whereas in a non-polar environment, it is strongly fluorescent. […]
The method below is applied: HepG2 cells are incubated in the presence of NBD-cholesterol (1 μg/ml) and of the test compound of formula (I) in black transparent-bottomed 96-well plates, at a rate of 30 000 cells per well. […] After addition of 50 μl of lysis buffer (10 mM NaPO4, 1% Igepal), the plates are shaken for 5 minutes and the fluorescence is read (excitation at 490 nm, emission at 540 nm) on a Fusion machine (Perkin-Elmer). […]

- IC50 (enzyme ACAT-1): 9 nM
- melting point: 186 °C
Structure (SMILES): CCCC1(C)C(=O)N(CC(=O)Nc2c(C(C)C)cccc2C(C)C)C(=O)N1c1ccc(C)cc1 (centres unmarked) [Compound 1, N-(2,6-Diisopropylphenyl)-2-(4-methyl-2,5-dioxo-4-propyl-3-p-tolylimidazolidin-1-yl)acetamide]
